{"source": "patent EP1101492A1", "about": "“NOVEL REMEDIES FOR ALLERGIC DISEASES” (FUJI YAKUHIN KOGYO KABUSHIKI KAISHA, priority 1998, dated 2000)", "tested_on": "allergic peritonitis", "test": "Allergic peritonitis induced with ovalbumin (peritoneal exudate cells)", "format": "in vivo, Balb/c mice", "conditions": "ovalbumin challenge", "method": "Twenty four hours after induction, mice were sacrificed under ether […] and each penitoneal cavity was lavaged twice or thrice with a washout medium (total volume: 5 mL, physiological saline containing 10 units/mL of heparin). Peritoneal exudate cells (PEC) were harvested in a siliconized glass tube. The retrieved washout medium was measured for its yield (mL) and the number of exudate cells therein by using Turk solution and counting on a haemocytometer and a total number of PEC was calculated. An aliquot thereof (an extent of approximately 20,000 cells of PEC) was taken. Specimens for staining were prepared using Cytospin 3 (CHANDON), and PEC was stained with Dif-Quick solution (International Reagents Corporation). After staining, PEC was subjected to fractional counts under a microscope with classification into eosinophils, neutrophils, lymphocytes/macrophages and basophils based on their form and stain nature (more than 500 PEC per specimen were randomly counted). […] After counting, intraperitoneal exudation inhibition rates were calculated by the following formula and expressed as the therapeutic efficacies: Inhibition Rate (%) =[1 -((PEC in Sensitized/Drug-Treated Mouse) - (PEC in Unsensitized/Saline-Treated Mouse))/((PEC in Sensitized/Saline-Treated Mouse) - (PEC in Unsensitized/Saline-Treated Mouse))]× 100 [formula]\nA physiological saline solution containing ovalbumin (0.25 mg/mL) and an aluminum hydroxide gel (4 mg/mL) was administered subcutaneously to male Balb/c mice (7 weeks old, 20 to 23 g, purchased from JAPAN SLC, Inc.) twice at one week interval at a single dose of 0.4 mL for sensitization. On Day 14 after the initial sensitization, an antigen solution for induction (2.5 µg/mL) was administered intraperitoneally to each animal at a dose of 0.4 mL to raise allergic peritonitis. Compound No. 130 (30 mg/kg) or a negative control solvent, physiological saline (10 mL/kg), was administered intraperitoneally to each animal 5 minutes prior to induction, 3 and 6 hours post-induction.\nSimilarly to Example 24, the peritoneal cavities were lavaged to retrieve PEC. The drained liquids were measured for their yield and total PEC number therein. In the same manner as in Example 24, PEC was stained and subjected to fractional counting under a microscope based on their form. […] Similarly to Example 24, basophils and neutrophils were excluded from subjects to be examined. In the same manner as in Example 24, intraperitoneal exudation inhibition rates were calculated and expressed as the therapeutic efficacies.\nIn the same manner as in Example 25, male Balb/c mice were sensitized with ovalbumin and an aluminum hydroxide gel, and, on Day 14 after the initial sensitization, treated with an antigen solution to raise allergic peritonitis. Compound No. […]\nSimilarly to Example 24, the peritoneal cavities were lavaged to retrieve PEC 24 hours after induction. The drained liquids were measured for their yield and total PEC number therein.", "key": {"[1]": {"conditions": "30 mg/kg i.p. 5 minutes prior to induction, 3 and 6 hours post-induction"}, "[2]": {"conditions": "30 mg/kg s.c. 6 hours and 5 minutes prior to induction, 24 hours after induction"}}, "data": [{"smiles": "CNC(=O)[C@H](Cc1ccc(NC(=N)N)cc1)NC(=O)[C@H](CC(C)C)C(CCCc1ccccc1)C(=O)NO", "note": "(single isomer, unassigned) [Compound No. 130, N-[4-(N-Hydroxyamino)-2(R)-isobutyl-3(R or S)-(3-phenyltrimethylene)succinyl)-L-4'-guanidophenylalanine-N-methylamide 1 acetate]", "values": [{"measurement": "inhibition of infiltration of eosinophils into the peritoneal cavity", "setting": "[1]", "result": 56.3, "unit": "%"}, {"measurement": "inhibition of infiltration of lymphocytes/macrophages into the peritoneal cavity", "setting": "[1]", "result": 74.9, "unit": "%"}, {"measurement": "reduction of total PEC numbers", "setting": "[1]", "result": 70.7, "unit": "%"}, {"measurement": "inhibition of infiltration of eosinophils into the peritoneal cavity", "setting": "[2]", "result": 38.6, "unit": "%"}, {"measurement": "inhibition of infiltration of lymphocytes/macrophages into the peritoneal cavity", "setting": "[2]", "result": 91.2, "unit": "%"}, {"measurement": "reduction of total PEC numbers", "setting": "[2]", "result": 68.5, "unit": "%"}]}]}
